Molecules are shown by their SMILES.

What is called Ki is a dissociation constant, usually derived from enzyme kinetics or from competition with a known ligand. Lower therefore signals a stronger hold on the target.

This test addresses Carbonic anhydrase 9 (Homo sapiens, UniProt Q16790).
`CN1CCN(CCC(=O)Nc2ccc(S(N)(=O)=O)cc2)CC1` had a Ki of 0.235 µM.

`NS(=O)(=O)c1nnc(NC(=O)CN2CCOCC2)s1` returned a Ki of 0.022 µM.

With `CN1CCN(CCC(=O)Nc2nnc(S(N)(=O)=O)s2)CC1`, the affinity corresponds to a Ki of 0.033 µM.

The compound `NS(=O)(=O)c1ccc(NC(=O)CCCN2CCOCC2)cc1` showed a Ki of 0.246 µM.

In turn, `CC1CCN(CC(=O)Nc2nnc(S(N)(=O)=O)s2)CC1` showed a Ki of 0.035 µM.

Regarding `CC1CCN(CCCC(=O)Nc2ccc(S(N)(=O)=O)cc2)CC1`, the Ki was 0.09 µM.

Consider `NS(=O)(=O)c1ccc(NC(=O)CCN2CCN(Cc3ccccc3)CC2)cc1`, for which the Ki came out at 0.24 µM.

Compound `CN1CCN(CC(=O)Nc2nnc(S(N)(=O)=O)s2)CC1` had a Ki of 0.031 µM.

`NS(=O)(=O)c1ccc(NC(=O)CCN2CCC(Cc3ccccc3)CC2)cc1`: affinity was put at a Ki of 0.248 µM.

`NS(=O)(=O)c1ccc(NC(=O)CCN2CCOCC2)cc1` had a Ki of 0.184 µM.

The compound `NS(=O)(=O)c1nnc(NC(=O)CN2CCN(Cc3ccccc3)CC2)s1` had a Ki of 0.067 µM.

For the compound `NS(=O)(=O)c1ccc(NC(=O)CN2CCOCC2)cc1`, the Ki worked out at 0.181 µM.

Consider `NS(=O)(=O)c1ccc(NC(=O)CCCCN2CCOCC2)cc1`, for which affinity was put at a Ki of 0.163 µM.

Regarding `CC1CCN(CCC(=O)Nc2ccc(S(N)(=O)=O)cc2)CC1`, the Ki amounted to 0.197 µM.

(Values after ChEMBL document CHEMBL1142836 (Bioorg Med Chem Lett, 2005).)
